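Grown in 96-well plates, cells were treated for 48 hours with each compound at five concentrations. Insufficient inhibition: endpoint recorded as highest concentration tested. At the TGI there is no net growth.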
Legend:
Assay in all cases: NCI tumour cell line growth inhibition, 48 h
PC-3 prostate = tested on: PC-3 prostate
ACHN renal = tested on: ACHN renal
MCF7 breast = tested on: MCF7 breast
786-0 renal = tested on: 786-0 renal
EKVX NSCLC = tested on: EKVX NSCLC
SF-268 CNS = tested on: SF-268 CNS
RXF 393 renal = tested on: RXF 393 renal
NCI-H226 lung = tested on: NCI-H226 lung
HL-60(TB) leukemia = tested on: HL-60(TB) leukemia
CCRF-CEM leukemia = tested on: CCRF-CEM leukemia

Row | SMILES | TGI (PC-3 prostate) [µM] | TGI (ACHN renal) [µM] | TGI (MCF7 breast) [µM] | TGI (786-0 renal) [µM] | TGI (EKVX NSCLC) [µM] | TGI (SF-268 CNS) [µM] | TGI (RXF 393 renal) [µM] | TGI (NCI-H226 lung) [µM] | TGI (HL-60(TB) leukemia) [µM] | TGI (CCRF-CEM leukemia) [µM]
1 | O=C(C#Cc1cn(C2CC(O)C(CO)O2)c(=O)[nH]c1=O)c1ccccc1 (centres undefined) | > 100 | > 100 | > 100 | > 100 | > 100 | > 100 | 52.7 | > 100 | – | –
2 | COc1ccc(C2(C3c4cc(OC)c(OC)cc4CCN3C)SCCCS2)cc1O (centres undefined) | > 100 | – | > 100 | > 100 | > 100 | > 100 | > 100 | – | > 100 | > 100
3 | O=C(CCCn1ccnc1[N+](=O)[O-])NCCn1ccnc1[N+](=O)[O-] | > 100 | > 100 | > 100 | > 100 | > 100 | > 100 | – | > 100 | > 100 | > 100
4 | COC(=O)CCN(CCC(=O)OC)C1CC1 | – | > 100 | > 100 | > 100 | > 100 | > 100 | > 100 | > 100 | > 100 | > 100
5 | CN1CCCCC(C(O)(c2ccccc2)c2ccccc2)C1=O (centres undefined) | – | > 100 | – | > 100 | > 100 | > 100 | > 100 | > 100 | – | > 100
6 | Cn1ccc(C(=O)NCCCCCNC(=O)c2ccn(C)c(=O)c2O)c(O)c1=O | > 100 | > 100 | – | > 100 | – | > 100 | – | > 100 | > 100 | > 100
7 | CCOC12SC(=Nc3ccc(C)cc3)NN1C(=S)N(C)N=C2C (centres undefined) | – | > 100 | – | > 100 | > 100 | > 100 | > 100 | > 100 | > 100 | > 100
8 | CCCCCCCCC/C=C1\CC(CO)(COC(=O)c2ccccc2)OC1=O (centres undefined) | 34.7 | > 100 | 48.9 | 39.8 | 34 | 54 | 47.4 | 57.9 | – | > 100
9 | O=c1[nH]c2ccccc2c2oc(-c3ccccc3)nc12 | > 100 | > 100 | > 100 | 56.1 | > 100 | 71.3 | 44 | > 100 | – | 52.6
10 | COC1/C=C/C(C)C(C(C)C(OC)C(C)CCC(=O)C(C)C(C/C=C/N(C)C=O)OC)OC(=O)/C=C/C=C(\C)CC(OC)C(OC)C2=CC(=O)O[C@@H](C(C)C(OC)CC(OC)/C=C/C(C)C(O)C1)[C@H]2O (some centres undefined) | 0.35 | 0.594 | 0.977 | 0.434 | 0.441 | 0.407 | 0.263 | 0.244 | 0.43 | –
11 | Cc1cc([N+](=O)[O-])ccc1N=NC(=O)NNc1ccc([N+](=O)[O-])cc1C | 26.6 | 29.4 | 20.5 | 30.6 | – | 40.9 | – | 31.5 | 40.9 | 41.7
12 | COc1ccc2c(c1)-c1oc3ccccc3c(=O)c1CO2 | > 100 | > 100 | > 100 | > 100 | > 100 | > 100 | – | > 100 | – | > 100
